The source of these data is patent US20240425464A1, “Substituted Monohydrazides as Potent Antifungal Agents” (University of Kentucky Research Foundation, priority 2023, published 2024).

The test system of one data set is HepG2 cells. Kind of data set: In vitro cytotoxicity assay (resazurin). Conditions: for toxicity: up to 31.3 j·tg mL^−1, 24 h; for cell survival: at 31.3 j·tg mL^−1. In kind it is cell-based. As to the method:
The antifungal agent amphotericin B (AmB) was purchased from VWR (Radnor PA, USA). AmB was dissolved in DMSO at a final concentration of 5 mg/mL and was stored at −20° C., protected from light. […] For cytotoxicity assays, HepG2 and the mouse macrophage cell line J774A.1 were obtained from University of Kentucky. […] Mammalian cells were grown in Dulbecco's Modified Eagle's Medium (DMEM) (from VWR) with 10% fetal bovine serum (FBS) (from VWR) and 1% Pen/Strep (from ATCC). Cell lines were cultured at 37° C. with 5% CO2 and passaged by trypsinization with 0.05% trypsin: 0.53 mM EDTA (from Sigma-Aldrich).
Cytotoxicity assays were performed as previously described with slight modifications.^3 HepG2, J774A.1, and HEK-293 cells were first thawed from frozen stocks kept in liquid N2 and grown in Dulbecco's modified Eagles's medium (DMEM) containing 10% fetal bovine serum (FBS) and 1% Pen/Strep. […] The 96-well plates were incubated 37° C. with 5% CO2 overnight. […] The medium in the 96-well plates containing the cells was aspirated and replaced by fresh DMEM (100 μL). […] The 96-well plates were further incubated for 24 h at 37° C. with 5% CO2 overnight. To evaluate cell survival, each well was treated with 10 μL (2 mM) of resazurin sodium salt (Sigma-Aldrich, St. Louis, MO, USA) and was incubated for another 6 h. Metabolically active cells can convert resazurin to the highly fluorescent dye, resorufin, and be detected at ?560 excitation and λ590 emission using a SpectraMax M5 plate reader (Molecular Devices, San Jose, CA, USA). Triton X-100® (1%, v/v) was used as positive control; the negative control consisted of cells treated with the delivery vehicle (0.05% DMSO), and the blank control was only the culture medium with 0.05% DMSO without cells. The experiments were performed in quadruplicate.

Data set [1] deals with C. albicans ATCC 10231 (strain A) biofilm formation. The data set can be described thus: Prevention of biofilm formation assay. In kind it is cell-based, Candida albicans. Here is the method:
Biofilm prevention assays were set up identically to the ordinary MIC experiment, where compounds were diluted, and the fungi added. After overnight growth, the plates were washed as in the biofilm disruption assay and stained and measured in the same fashion.
A large amount of fungal cells were exposed to the monohydrazides at time 0 h to evaluate the effect of these compounds in the prevention of Candida biofilm formation (FIG. 5B). […] Although some of these monohydrazides were able to prevent biofilm formation, none of these compounds had any effect in terms of the disruption of already pre-formed biofilms (FIG. 5A).

In data set [2] the test system is C. albicans ATCC 10231 (strain A). The data set can be described thus: Time-kill assay. Conditions: at 4×MIC; CFU at 0-24 h. In kind it is cell-based, Candida albicans. Here is the method: Compounds were then added to the fungal cells. […] Experiments were performed in duplicate.
In data set [3] the test system is Saccharomyces cerevisiae AR Bank #400. The data set can be described thus: MIC determination by in vitro antifungal assay. In kind it is cell-based. In outline: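 RPMI 1640 (L-glutamine, no bicarbonate), 0.165 M MOPS, pH 7.0, 35° C. Inoculum: growing culture set to OD600 0.12 (˜1×10^6 CFU/mL), diluted 1:100. CDC AR Bank isolates.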

≈ marks a conversion by molar mass, not a printed value. Like-named read-outs stand apart in the source and are kept apart here.

Consider `O=C(NNc1cccc(F)c1)c1ccccn1` [Compound 2a], for which, in the data set with HepG2 cells, the toxicity entry is on record as “no toxicity”. In addition, the “concentration active in prevention of biofilm formation” value (“concentration active in prevention” below) in data set [1] was found to be 7.8 j·tg mL^−1.

As to `O=C(NNc1cccc(Cl)c1)c1ccccn1` [Compound 2b], in data set [2], the “fungistatic or fungicidal behavior in time-kill assay” value is listed as “fungistatic”. In the data set on HepG2 cells, the toxicity entry is “no toxicity”.

Consider `COc1cccc(NNC(=O)c2ccccn2)c1` [Compound 2c], for which the MIC in data set [3] stood at 7.8 μg/mL^−1. Besides, the “concentration active in prevention” value in data set [1] is listed as 1.96 j·tg mL^−1.

As to `O=C(NNc1ccc(F)cc1)c1ccccn1` [Compound 2d], the toxicity result in the data set with HepG2 cells is “no toxicity”. Besides, in data set [1], the “concentration active in prevention” value turned out to be 1.96 j·tg mL^−1.

`COc1ccc(NNC(=O)c2ccccn2)cc1` [Compound 2f]: the “concentration active in prevention” value in data set [1] is 7.8 j·tg mL^−1.

`O=C(NNc1ccc(F)cc1F)c1ccccn1` [Compound 2g]: the toxicity entry in the data set with HepG2 cells was “no toxicity”. Also, the “prevention of biofilm formation” value in data set [1] is reported as “not capable of preventing”.

In the case of `O=C(NNc1cc(F)ccc1F)c1ccccn1` [Compound 2h], in data set [1], the “prevention of biofilm formation” value is reported as “not capable of preventing”.

`O=C(NNc1cc(F)cc(F)c1)c1ccccn1` [Compound 2i]: the cell survival in the data set on HepG2 cells stood at 89%. Besides, the “prevention of biofilm formation” value in data set [1] is on record as “not capable of preventing”.

With `O=C(NNc1cc(Cl)cc(Cl)c1)c1ccccn1` [Compound 2j], in data set [3] (read-out: MIC), the MIC amounted to 3.9 µg/mL (≈ 13.8 µM). The “prevention of biofilm formation” value in data set [1] was “not capable of preventing”.

In the data set with HepG2 cells, `O=C(NNc1cccc(F)c1)c1cnccn1` [Compound 9a] had a cell survival of 94%.

On to `O=C(NNc1cccc(Cl)c1)c1cnccn1` [Compound 9b], for which the toxicity entry with HepG2 cells is “no toxicity”.

As to `COc1cccc(NNC(=O)c2cnccn2)c1` [Compound 9c], the MIC in data set [3] (read-out: MIC) is 3.9 µg/mL (≈ 16 µM). In the data set on HepG2 cells, the toxicity entry is given as “no toxicity”.

In turn, `O=C(NNc1ccc(Cl)cc1)c1cnccn1` [Compound 9e] showed an MIC in data set [3] of 3.9 μg/mL^−1.

For the compound `COc1ccc(NNC(=O)c2cnccn2)cc1` [Compound 9f], the toxicity result in the data set with HepG2 cells is “no toxicity”.

With `O=C(NNc1ccc(F)cc1F)c1cnccn1` [Compound 9g], the toxicity entry with HepG2 cells is given as “no toxicity”.
